US12623988B2, “Scaleable preparation of polyketides” (The Regents of the University of California, priority 2019, dated 2026)
“Also recorded” adds a separate entry of the source. Where two headings read alike, the source gives them in different places.

Key:
[1] = Storage stability of synthetic fragments and intermediates; settings: for stability at ambient conditions: storage
[2] = rcm bond, Hoveyda-Grubbs 2nd generation catalyst, toluene, 110.0 °C, 5.33 h
[3] = tested on: HCT-116 cells; assay: Cell viability assay for 1 and 1a-1c in HCT-116 cells (CellTiter Aqueous One, GI50); format: cell-based, human; settings: 0 to 1000 nM, 72 h, result in words, compared to 1
Protocol: Cell culture. The HCT-116 cell line was cultured in McCoy's 5a (Life Technologies) supplemented with 10% fetal bovine serum (FBS), 2 mM L-glutamine, and 100 U mL^−1 of penicillin and 100 μg mL^−1 of streptomycin at 37° C. in an atmosphere of 5% CO2. Both the HeLa and Caov3 cell lines were maintained in DMEM (Life Technologies) supplemented with 10% FBS, 2 mM L-glutamine, and 100 U mL^−1 of penicillin and 100 μg mL^−1 of streptomycin at 37° C. in an atmosphere of 5% CO2.
Cell Viability Assays for 1a-1c. HCT-116 cells were cultured in McCoy's 5a (Life Technologies) supplemented with 10% fetal bovine serum (FBS), 2 mM L-glutamine, 100 U mL^−1 penicillin and 100 μg mL^−1 streptomycin at 37° C. in an atmosphere of 5% CO2. HCT-116 cells were plated at […] cells/well in McCoy's 5a containing 10% FBS. Cells were cultured for 24 h, pretreated with 1 or 1a-1c in DMSO ranging from 0 to 1000 nM for 72 h (cell media contained <0.5% DMSO), and then washed with PBS (2×100 μL). 100 μL of PBS was added to each well, followed by 20 μL of CellTiter Aqueous One Solution (Promega). After 2 h at 37° C., absorbance readings were taken at 490 nm (test wavelength) and 690 nm (reference wavelength). GI50 values were calculated in Prism (GraphPad) using at least three biological replicates.

[4] = estimated, reference (6); cited from earlier work

Question: For `CC[C@H](OC)[C@@H](C)/C=C/CO` [compound 13, (4S,5S,E)-5-Methoxy-4-methylhept-2-en-1-ol], which “storage stability at 4° C.” value ([1]; stored at 4° C.) is on record?
Answer: over 2 years

Question: Which ring closure, yield of all isomers ([2]; from C=C[C@@H]1OC(c2ccc(OC)cc2)O[C@]1(C)CC[C@H](CC(=O)O[C@H](/C(C)=C/I)[C@@H](C)C=C)O[Si](C)(C)C(C)(C)C, 5.37 mM) does the source give for `COc1ccc(C2O[C@H]3/C=C/[C@H](C)[C@@H](/C(C)=C/I)OC(=O)C[C@H](O[Si](C)(C)C(C)(C)C)CC[C@@]3(C)O2)cc1` (stereo partly drawn) here?
Answer: 50%

Question: What about the ring closure, yield of all isomers ([2]; from C=C[C@@H]1OC(c2ccc(OC)cc2)O[C@]1(C)CC[C@H](CC(=O)O[C@H](/C(C)=C/I)[C@@H](C)C=C)O[Si](C)(C)C(C)(C)C) of the same compound?
Answer: 51%

Question: With `CC[C@H](OC)[C@@H](C)[C@H]1O[C@@H]1[C@@H](O)[C@H](C)/C=C/C=C(\C)[C@H]1OC(=O)C[C@H](O)CC[C@@](C)(O)[C@H](OC(C)=O)/C=C/[C@@H]1C` [1b, 7R,17S-FD-895] as the compound, how does the “activity (GI50 screening) in human colorectal tumor HCT-116 cells” value [3] read?
Answer: compromised activity; also recorded: lack in activity

Question: For `CC[C@H](OC)[C@@H](C)[C@H]1O[C@@H]1[C@@H](O)[C@H](C)/C=C/C=C(\C)[C@H]1OC(=O)C[C@H](O)CC[C@@](C)(O)[C@@H](OC(C)=O)/C=C/[C@@H]1C` [compound 1, 17S-FD-895], which “human maximum tolerated dose (MTD)” value [4] is on record?
Answer: ~4 mg/m^2

Question: Which “activity (GI50 screening) in human colorectal tumor HCT-116 cells” value [3] does the source give for `CC[C@H](OC)[C@@H](C)[C@H]1O[C@@H]1[C@@H](O)[C@H](C)/C=C/C=C(\C)[C@H]1OC(=O)C[C@@H](O)CC[C@@](C)(O)[C@@H](OC(C)=O)/C=C/[C@@H]1C` [1a, 3S,17S-FD-895] here?
Answer: compromised activity

Question: Which ring closure, yield of all isomers ([2]; from C=C[C@@H]1OC(c2ccc(OC)cc2)O[C@]1(C)CC[C@H](C[13C](=O)O[C@H](/C(C)=C/I)[C@@H](C)C=C)O[Si](C)(C)C(C)(C)C, 6.52 mM) does the source give for `COc1ccc(C2O[C@H]3C=C[C@H](C)[C@@H](/C(C)=C/I)O[13C](=O)C[C@H](O[Si](C)(C)C(C)(C)C)CC[C@@]3(C)O2)cc1` (stereo partly drawn) here?
Answer: 50%

Question: For `CC(=O)O[C@H]1/C=C/[C@H](C)[C@@H](/C(C)=C/I)OC(=O)C[C@H](O)CC[C@@]1(C)O` [compound 2, (2S,3S,6S,7R,10R,E)-7,10-dihydroxy-2-((E)-1-iodoprop-1-en-2-yl)-3,7-dimethyl-12-oxooxacyclododec-4-en-6-yl acetate], which “stability at ambient conditions” value [1] is on record?
Answer: stable over six months at ambient conditions

Question: For `C#C[C@@H](C)[C@H](O)[C@H]1O[C@@H]1[C@H](C)[C@H](CC)OC` [compound 15, (1S,2R)-1-((2R,3R)-3-((2R,3S)-3-methoxypentan-2-yl)oxiran-2-yl)-2-methylbut-3-yn-1-ol], which “stability at ambient conditions” value [1] is on record?
Answer: stable over six months at ambient conditions
